In US5760013A, “Thymidylate analogs and the use thereof” (National Science Council, priority 1996, dated 1998):
Converted amounts (≈) assume the structure as drawn. Where two headings read alike, the source gives them in different places.

Key:
HIV-1(III B) = test: Inhibition of cytopathogenicity of HIV-1(IIIB) in MT4 cells, cell-protection assay; format: cell-based, human immunodeficiency virus type 1 (HIV-1)
MT4 cell = test: Cellular toxicity in uninfected MT4 cells; format: cell-based; settings: Homo sapiens
Method: Toxicity of these compounds was evaluated by their ability to cause morphological changes in cells at different concentrations.
^a Inhibitory concentrations (IC50) represent the average of
triplicate determinations;
^b Concentration of the compound required to reduce the number of
viable uninfected cells by 50%; and […]

[1] = Determination of solubility in phosphate buffer (UV absorbance); format: physicochemical; settings: for water solubility, in words: compared with AZT
Method: Determination of Solubility. Each compound (70 mg) listed in Table 1 was agitated in a 25-mL volumetric flask with phosphate buffer (0.10M, 5.0 mL) for 20 h.

[2] = phosphate buffer (0.10M), agitated 20 h
[3] = Human immunodeficiency virus 1, cytopathogenicity in MT4 cells, average of triplicate determinations, read-out: IC50 HIV-1(III B)
[4] = uninfected MT4 cells, average of triplicate determinations, read-out: IC50 MT4 cell (concentration required to reduce the number of viable uninfected cells by 50%)

## Cc1cn([C@H]2C[C@H](N=[N+]=[N-])[C@@H](CO)O2)c(=O)[nH]c1=O [AZT, 3'-Azido-3'-deoxythymidine, reference compound]
HIV-1(III B); Human immunodeficiency virus 1, MT4, read-out: IC50 HIV-1(III B)
  IC50: 0.02 µg/mL (≈ 0.0748 µM)
MT4 cell; MT4, read-out: IC50 MT4 cell (concentration required to reduce the number of viable uninfected cells by 50%)
  IC50: 57.3 µg/mL (≈ 214 µM)

## COC(=O)[C@H](C)NP(=O)(C[C@H]1O[C@@H](n2cc(C)c(=O)[nH]c2=O)C[C@@H]1F)O[C@H]1C[C@H](n2cc(C)c(=O)[nH]c2=O)O[C@@H]1CO (stereo partly drawn) [Compound IX, (2R,4S,5R)-1-[4-Fluorotetrahydro-5-[[(3'-O-thymidinyl)(methoxy-L-alaninyl)-phosphinylidene]methyl]-2-furyl]thymine]
[1]; [2]
  solubility in H2 O: 8.79 mg/mL (≈ 14200 µM)
HIV-1(III B); [3]
  IC50: 0.34 µg/mL (≈ 0.551 µM)
MT4 cell; [4]
  IC50: 180 µg/mL (≈ 292 µM)

## Cc1cn([C@H]2C[C@H](F)[C@@H](CP(=O)(O)O)O2)c(=O)[nH]c1=O [Compound V, 3'-Fluoro-3',5'-dideoxythymidine-5'-phosphonic acid]
[1]
  water solubility, in words: higher than that of AZT
[1]; [2]
  solubility in H2 O: 12.26 mg/mL (≈ 39800 µM)
HIV-1(III B); [3]
  IC50: 11.8 µg/mL (≈ 38.3 µM)
MT4 cell; [4]
  IC50: 98.7 µg/mL (≈ 320 µM)

## Cc1cn([C@H]2C[C@H](N=[N+]=[N-])[C@@H](CP(=O)(O)O)O2)c(=O)[nH]c1=O [Compound VI, 3'-Azido-3',5'-dideoxythymidine-5'-phosphonic Acid]
[1]; 0.10 m phosphate buffer, aqueous buffer, phosphate buffer (0.10M), agitated 20 h, read-out: solubility in H2 O
  solubility at 20 h: 11.1 mg/mL (≈ 33600 µM)
HIV-1(III B); [3]
  IC50: 7.68 µg/mL (≈ 23.2 µM)
MT4 cell; [4]
  IC50: 115 µg/mL (≈ 346 µM)

## Cc1cn([C@H]2C[C@H](OP(=O)(O)C[C@H]3O[C@@H](n4cc(C)c(=O)[nH]c4=O)C[C@@H]3F)[C@@H](CO)O2)c(=O)[nH]c1=O [Compound VII, (2R,4S,5R)-1-[4-Fluorotetrahydro-5-[(3'-O-thymidinyl-phosphinico)methyl]-2-furyl]thymine]
[1]; [2]
  solubility in H2 O: 3.98 mg/mL (≈ 7480 µM)
HIV-1(III B); [3]
  IC50: 3.04 µg/mL (≈ 5.71 µM)
MT4 cell; [4]
  IC50: 79 µg/mL (≈ 148 µM)

## COC(=O)[C@H](C)NP(=O)(C[C@H]1O[C@@H](n2cc(C)c(=O)[nH]c2=O)C[C@@H]1N=[N+]=[N-])O[C@H]1C[C@H](n2cc(C)c(=O)[nH]c2=O)O[C@@H]1CO (stereo partly drawn) [Compound X, (2R,4S,5R)-1-[4-Azidotetrahydro-5-[[(3'-O-thymidinyl)(methoxy-L-alaninyl)-phosphinylidene]methyl]-2-furyl]thymine]
[1]; [2]
  solubility in H2 O: 9.13 mg/mL (≈ 14300 µM)
HIV-1(III B); [3]
  IC50: 0.61 µg/mL (≈ 0.952 µM)
MT4 cell; [4]
  IC50: 200 µg/mL (≈ 312 µM)

## COC(=O)[C@@H](C)NP(=O)(C[C@H]1O[C@@H](n2cc(C)c(=O)[nH]c2=O)C[C@@H]1F)O[C@H]1C[C@H](n2cc(C)c(=O)[nH]c2=O)O[C@@H]1CO (stereo partly drawn) [Compound XI, (2R,4S,5R)-1-[4-Fluorotetrahydro-5-[[(3'-O-thymidinyl)(methoxy-D-alaninyl)-phosphinylidene]methyl]-2-furyl]thymine]
[1]; [2]
  solubility in H2 O: 8.92 mg/mL (≈ 14400 µM)
HIV-1(III B); [3]
  IC50: 0.5 µg/mL (≈ 0.81 µM)
MT4 cell; [4]
  IC50: 462 µg/mL (≈ 748 µM)

## COC(=O)[C@@H](C)NP(=O)(C[C@H]1O[C@@H](n2cc(C)c(=O)[nH]c2=O)C[C@@H]1N=[N+]=[N-])O[C@H]1C[C@H](n2cc(C)c(=O)[nH]c2=O)O[C@@H]1CO (stereo partly drawn) [Compound XII, (2R,4S,5R)-1-[4-Azidotetrahydro-5-[[(3'-O-thymidinyl)(methoxy-D-alaninyl)-phosphinylidene]methyl]-2-furyl]thymine]
[1]
  water solubility, in words: higher than that of AZT
[1]; [2]
  solubility in H2 O: 9.20 mg/mL (≈ 14400 µM)
HIV-1(III B); [3]
  IC50: 0.76 µg/mL (≈ 1.19 µM)
MT4 cell; [4]
  IC50: 458 µg/mL (≈ 714 µM)

## Cc1cn([C@H]2CC[C@@H](CP(=O)(O)O)O2)c(=O)[nH]c1=O [III, 3',5'-Dideoxythymidine-5'-phosphonic acid]
HIV-1(III B); [3]
  IC50: 23.5 µg/mL (≈ 81 µM)
MT4 cell; [4]
  IC50: 128 µg/mL (≈ 443 µM)

## Cc1cn([C@H]2C[C@H](C#N)[C@@H](CP(=O)(O)O)O2)c(=O)[nH]c1=O [IV, 3'-Cyano-3',5'-dideoxythymidine-5'-phosphonic acid]
HIV-1(III B); [3]
  IC50: > 128 µg/mL
MT4 cell; [4]
  IC50: 69.9 µg/mL (≈ 222 µM)

## Cc1cn([C@H]2C[C@H](N=[N+]=[N-])[C@@H](CP(=O)(O)O[C@H]3C[C@H](n4cc(C)c(=O)[nH]c4=O)O[C@@H]3CO)O2)c(=O)[nH]c1=O [VIII, (2R,4S,5R)-1-[4-Azidotetrahydro-5-[(3'-O-thymidinyl-phosphinico)methyl]-2-furyl]thymine]
[1]; [2]
  solubility in H2 O: 3.24 mg/mL (≈ 5830 µM)
HIV-1(III B); [3]
  IC50: 1.92 µg/mL (≈ 3.46 µM)
MT4 cell; [4]
  IC50: 99.5 µg/mL (≈ 179 µM)
